Experimental findings from PubChem BioAssay AID1993 (NMMLSC, 2009) are described below.

Activity calls are given as the source filed them.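 How the source made its calls: active means fluorescence area over time at least a quarter above or below the solvent control area (some results past the limit were not filed as active); inactive means the rest.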

This test has as its system U937 FPR-DeltaST, VLA-4 LDV-FITC binding, flow cytometry. As to the kind of experiment: FPR-triggered VLA-4 ligand binding change in U937, RGS protein inhibitor project, cell-based, U937 FPR-DeltaST, LDV-FITC, flow cytometry (AID 1993). The note with it: at 10 µM; active compounds read high. (In general: Flow cytometry measures light scatter and fluorescence of single cells or particles in a stream.)
As to `Cc1cccc(N2CCN(C(=O)Cn3sc4nc(C)cc(C)c4c3=O)CC2C)c1` (configuration not stated), the AUC was 25500.

On to `Cc1[nH]n(-c2ccccc2)c(=S)c1C=Nc1cccc([N+](=O)[O-])c1`, for which the AUC is 26500. Turning to `CCC(=O)NC1=C(Cl)C(=O)C(NC(=O)CC)=C(Cl)C1=O`, the AUC is 11600 (inactive). As to `CCN(CC)S(=O)(=O)c1cccc(C(=O)N/N=C/c2ccc(O)c(O)c2O)c1`, the AUC is 26500. With `Cc1cc(C)c2c(=O)n(CC(=O)Nc3cccc(F)c3)sc2n1` the figure was 25000 (inactive); with `O=C1C(Cl)=C(N2CCCCC2)C(=O)C(Cl)=C1c1cnc(N2CCCCC2)s1`, 2540 (inactive). Consider `NS(=O)(=O)c1ccc(N/N=C/c2ccc(O)c(O)c2O)c([N+](=O)[O-])c1`, for which the AUC is 20500 (inactive). With `O=c1c2ccccc2sn1-c1ccc(S(=O)(=O)N2CCCC2)cc1` the figure was 19400 (inactive); with `Nc1c(C(=O)NCC2CCCO2)sc2nc3c(c(-c4ccco4)c12)CC/C3=C\c1ccco1` (configuration not stated), 455 (inactive); with `CC(NC(=O)c1sc2cc([N+](=O)[O-])ccc2c1Cl)C(C)(C)C` (configuration not stated), 29100. On to `O=c1c2ccccc2sn1-c1cc(S(=O)(=O)N2CCOCC2)ccc1N1CCCC1`, for which the AUC was 19600 (inactive). With `CCOC(=O)C1CCCN(C(=O)Cn2sc3nc(C)cc(C)c3c2=O)C1` (configuration not stated), the AUC is 27900. On to `O=C(NCCCN1CCOCC1)c1sc2cc([N+](=O)[O-])ccc2c1Cl`, for which the AUC is 27100. Regarding `O=c1c2ccccc2sn1-c1ccccc1`, the AUC is 18300 (inactive).

As for `Cc1cc(C)c2c(=O)n(CC(=O)Nc3ccc(Cl)cc3)sc2n1`, the AUC was 22800 (inactive). As for `COc1ccc(OC)c(CCNC(=O)Cn2sc3nc(C)cc(C)c3c2=O)c1`, the AUC was 26600. `Cc1ccc(NC(=O)Cn2sc3nc(C)cc(C)c3c2=O)c(Cl)c1`: the AUC is 23500 (inactive).
